According to BigSolDB 2.1:

CC(C)(C)c1cc(CCC(=O)NCCCCCCNC(=O)CCc2cc(C(C)(C)C)c(O)c(C(C)(C)C)c2)cc(C(C)(C)C)c1O
solubility (mole fraction)
Conditions | 283.15 K | 288.15 K | 293.15 K | 298.15 K | 303.15 K | 308.15 K | 313.15 K | 318.15 K | 323.15 K
in acetone | 0.00214 | 0.00257 | 0.00297 | 0.00328 | 0.00419 | 0.00585 | 0.00747 | 0.01 | 0.0152
in ethanol | 0.00775 | 0.00841 | 0.00982 | 0.011 | 0.0126 | 0.0148 | 0.0178 | 0.0218 | 0.0264
in ethyl acetate | 0.000614 | 0.000852 | 0.00109 | 0.00123 | 0.00155 | 0.00192 | 0.00258 | 0.00376 | 0.00527
in ethyl formate | 0.00151 | 0.00205 | 0.00207 | 0.00254 | 0.00309 | 0.00406 | 0.00501 | 0.00622 | 0.00879
in isopropanol | 0.00326 | 0.00345 | 0.004 | 0.00459 | 0.00552 | 0.00688 | 0.00872 | 0.0107 | 0.0129
in methanol | 0.00197 | 0.0023 | 0.00263 | 0.0032 | 0.00388 | 0.00506 | 0.00666 | 0.00874 | 0.012
in methyl acetate | 0.000498 | 0.000804 | 0.000846 | 0.00107 | 0.00137 | 0.00185 | 0.00239 | 0.00359 | 0.00538
in n-propanol | 0.00711 | 0.00807 | 0.00974 | 0.0116 | 0.0128 | 0.0153 | 0.0183 | 0.0223 | 0.0254
